According to paper PMC4632323, “Development of a neuroprotective peptide that preserves survival pathways by preventing Kidins220/ARMS calpain processing induced by excitotoxicity” (Cell Death & Disease, 2015):
Where a SMILES comes first, the peptide text is derived from it. Where no end group is shown, it is not given here. The star is where a group is joined. Cbz = O=C(OCc1ccccc1)*

Tests used:
[1] = system: Kidins220; assay: In vitro digestion of neuronal protein extracts with purified calpain I, immunoblot (Kid-Ct); type: biochemical, rat; conditions: calpain I 0-80 U/ml, 15 or 30 min, inhibitor 20 μM
Method: (c) Protein extracts from cortical neurons subjected to in vitro digestion with purified calpain I (0, 20, 50 or 80 U/ml) for 15 or 30 min in the absence or presence of calpain inhibitor CiIII (20 μM).
Protein extracts from cortical neurons were subjected to in vitro digestion with purified calpain I (20 U/ml) for 15 min in the presence of peptides Tat-K (K) or Tat-S (S) (0.5 μM). Results were analyzed by immunoblot with Kidins220 (Kid-Ct), spectrin and NSE antibodies.

[2] = system: Kidins220; assay: Kidins220 calpain processing induced by NMDAR overactivation in cortical neurons, immunoblot; type: cell-based, rat; conditions: inhibitor added 1 h before NMDA 100 μM + glycine 10 μM, 4 h; CiIII 20 μM, lactacystin 15 μM; Kid-Nt immunoblot
Method: Figure 1 Approximate mapping of Kidins220 processing sites recognized by calpain after induction of excitotoxicity. (a) Immunoblot analysis of primary neuronal cultures (DIV 14) treated with high concentrations of NMDA (100 μM) and glycine (10 μM), herein indicated as NMDA, for 0–6 h. Kidins220 antibodies recognizing a C-terminal peptide (amino acids 1746–1762; Kid-Ct) or the N-terminal region (amino acids 1–402; Kid-Nt), or that specific for the protein neuronal-specific enolase (NSE) were used. Bands corresponding to endogenous full-length (FL) Kidins220 or its different processing N-terminal fragments (Nt-0/Nt-9) are indicated. […]
(a) Cell-membrane peptide Tat-K contains from the N- to the C-terminus amino acids 47–57 of the HIV-1 Tat protein (italic) followed by two proline linker residues and rat Kidins220 amino acids 1668–1681 (bold), which include the major calpain cleavage site (arrow). […] Results were analyzed by immunoblot with Kidins220 (Kid-Ct), spectrin and NSE antibodies. […] Primary cultures of neurons (DIV 14) were incubated with 5, 10 or 25 μM of FITC-labeled control peptide (FITC-Tat-S) for 2, 4 or 6 h and pictures were taken in a conventional fluorescence microscope. […] Cortical neurons were pre-incubated for 1 h with 10 or 25 μM of Tat-K (K) or Tat-S (S) before NMDA addition for 4 h and analyzed by immunoblot with Kidins220 (Kid-Ct), spectrin and NSE antibodies. […]

[3] = system: cortical neurons; assay: Calcein-AM/propidium iodide staining of viable and dead neurons after excitotoxicity; type: cell-based, rat; conditions: peptide 25 μM pre-incubated 1 h, NMDA 4 h; mean ± S.E.M., n=7
Method: Figure 5 Neuroprotective effect exerted by Tat-K transduction on excitotoxic neuronal death. (a) Effect of Tat-K on cell death induced by NMDAR overactivation. Primary cultures of cortical neurons (DIV 14) were pre-incubated for 1 h with Tat-S or Tat-K (25 μM) and treated with NMDA for 4 h or left untreated. Next, viable and dead cells were visualized by simultaneous fluorescence staining with calcein-AM (1 μM; green) and propidium iodide (PI; 0.5 mM; red), respectively, for 15 min at 37 °C in the dark. Representative images for each condition are shown. Scale bar, 25 μm. (b) Quantitation of Tat-K effect on the relative percentage of viable/dead neurons found in excitotoxic conditions. A minimum of five random fields containing at least 500 neurons each were counted per experimental condition. […] Statistical significance was determined by paired Student's t-test (**P<0.01). (c) Quantitation of the effect of Tat-K on neuronal viability after induction of excitotoxicity. […] Neuronal viability was established by MTT reduction assay after subtracting the contribution of the glial cells present in the mixed cultures to absorbance as indicated in the Methods section. […] Statistical significance was determined by paired Student's t-test (*P<0.05, **P<0.01) […]

Molecule	Effect on calpain I cleavage of Kidins220 (decrease of FL-Kidins220 and accumulation of Ct-0) [1]	Effect on NMDA-induced Kidins220 processing (Nt-1/Nt-9 production) [2]	Viable neurons (calcein-AM) relative to total number of neurons [3] [%]
CC(C)[C@H](NC(=O)OCc1ccccc1)C(=O)N[C@H](C=O)Cc1ccccc1 [CiIII, carbobenzoxy–valinyl–phenylalaninal] (Cbz-Val-Phe-aldehyde)	inhibited	strongly prevented NMDA-induced processing	–
YGRKKRRQRRRPPLNRTPSTVTLNNNT [Tat-K]	–	–	40±7
YGRKKRRQRRRPPNTTTLSNLPTNVRN [Tat-S]	–	–	23±7
